The text below walks through data of patent US7384789B2, “Divalent metal ion sensors and binders” (The University of North Dakota, priority 2006, dated 2008).

Data set [1] is described as follows: Fluorescence emission profile with stoichiometric divalent metal ion: Zn^2+. Conditions: for effect of Zn^2+ on fluorescence emission intensity: stoichiometric ion, λex/λem: compound 1 300/390 nm, compound 3 315/357 nm, compound 4 365/520 nm. The protocol: (§1) Commercially available reagents, obtained from Acros Organics and Aldrich were used as received. All solvents were distilled before use. Reactions were monitored by thin-layer chromatography (TLC) and visualization was accomplished with a UV lamp. Reaction mixtures were purified by column chromatography, performed with the indicated solvents using silica gel (230-400 mesh). The Rf values were calculated based on the eluents used for purification. The yields reported refer to chromatographically and spectroscopically pure compounds. The purity of the compounds were ascertained by GC/MS analysis (HP 5890 Series II GC fitted with HP 5971 Series Mass Selective Detector). ^1H and proton decoupled ^13C NMR spectra were recorded on a Bruker AMX 500 MHz spectrometer at ambient temperature. The fluorescence spectra were obtained using Jobin Yvon Horiba Fluorolog-3 spectrofluorometer. The HEPES buffer was prepared from commercially available 1M solution of the free acid and the pH was adjusted to 7.0 by the addition of KOH pellets in the presence of 0.135 M NaCl. The fluorescence measurements were carried out on 3 mL samples of the sensor and 3 μL aliquots of the 200 mM metal ion solution in HEPES were added to the sample to make up the desired metal concentrations.
(§2) The influence of divalent metal ions on the fluorescence spectral profile of compound 1 is shown in FIG. 1, where the fluorescence emission spectra of 200 μM compound 1 (λex=300 nm) with stoichiometric concentrations of selected divalent metal ions. Compound 1 has a weak fluorescence emission peak around 386-390 nm, which is differently affected by different metal ions. […] In contrast, the fluorescence intensity of compound 1 decreases in the presence of Cu^2+, Ni^2+, and Co^2+.
The influence of divalent metal ions on the fluorescence spectral profile of compound 3 is shown in FIG. 3, where the fluorescence emission spectra of 200 μM […] (λex=315 nm) with stoichiometric concentrations of selected divalent metal ions. Compound 3 has a weak fluorescence emission peak around 355-360 nm, which is differently affected by different metal ions. […] In contrast, as expected, the fluorescence intensity of compound 3 decreases in the presence of Cu^2+, Ni^2+, and Co^2+. […] Titration of compound 3 with Zn^2+ indicates a Kd value of 2 mM (approx.).
The influence of divalent metal ions on the fluorescence spectral profile of compound is shown in FIG. 4, where the fluorescence emission spectra of 200 μM […] (λex=365 nm) with stoichiometric concentrations of selected divalent metal ions. Compound 4 has a UV absorption maximum at 425 nm. […] Excitation at shorter wavelengths e.g. at 365 nm leads to a weak emission peak around 520 nm, which is differently affected by different metal ions.

Data set [2] is described as follows: Fluorescence emission profile with stoichiometric divalent metal ion: Ni^2+. The note with it: 200 μM compound, λex/λem: compound 1 300/390 nm, compound 3 315/357 nm, compound 4 365/520 nm. The protocol: as §1, with “The HEPES buffer was prepared from commercially available 1M solution of the free acid and the pH was adjusted to 7.0 by the addition of KOH pellets in the presence of 0.135 M NaCl.” left out
as §2
(§3) The influence of divalent metal ions on the fluorescence spectral profile of compound 3 is shown in FIG. 3, where the fluorescence emission spectra of 200 μM […] (λex=315 nm) with stoichiometric concentrations of selected divalent metal ions. Compound 3 has a weak fluorescence emission peak around 355-360 nm, which is differently affected by different metal ions. […] In contrast, as expected, the fluorescence intensity of compound 3 decreases in the presence of Cu^2+, Ni^2+, and Co^2+. […]

The nature of data set [3]: Fluorescence emission profile with stoichiometric divalent metal ion: Co^2+. Conditions: 200 μM compound, λex/λem: compound 1 300/390 nm, compound 3 315/357 nm, compound 4 365/520 nm. The procedure:
as §1, with “The HEPES buffer was prepared from commercially available 1M solution of the free acid and the pH was adjusted to 7.0 by the addition of KOH pellets in the presence of 0.135 M NaCl.” left out
as §2, §3

Data set [4] is described as follows: Fluorescence emission profile with stoichiometric divalent metal ion: Ca^2+. The note with it: 200 μM compound, λex/λem: compound 1 300/390 nm, compound 3 315/357 nm, compound 4 365/520 nm. The procedure:
as §1, with “The HEPES buffer was prepared from commercially available 1M solution of the free acid and the pH was adjusted to 7.0 by the addition of KOH pellets in the presence of 0.135 M NaCl.” left out
as §2, §3

Data set [5] in a line: Fluorescence emission profile with stoichiometric divalent metal ion: Cu^2+. The note with it: 200 μM compound, λex/λem: compound 1 300/390 nm, compound 3 315/357 nm, compound 4 365/520 nm. The protocol: as §1, with “The HEPES buffer was prepared from commercially available 1M solution of the free acid and the pH was adjusted to 7.0 by the addition of KOH pellets in the presence of 0.135 M NaCl.” left out
as §2, §3

Data set [6] in a line: Fluorescence emission profile with stoichiometric divalent metal ion: Mg^2+. The note with it: 200 μM compound, λex/λem: compound 1 300/390 nm, compound 3 315/357 nm, compound 4 365/520 nm. The procedure: as §1, with “The HEPES buffer was prepared from commercially available 1M solution of the free acid and the pH was adjusted to 7.0 by the addition of KOH pellets in the presence of 0.135 M NaCl.” left out
as §2, §3

Data set [7] in a line: Fluorescence emission profile with stoichiometric divalent metal ion: Cd^2+. The note with it: 200 μM compound, λex/λem: compound 3 315/357 nm, compound 4 365/520 nm. The protocol:
as §1, with “The HEPES buffer was prepared from commercially available 1M solution of the free acid and the pH was adjusted to 7.0 by the addition of KOH pellets in the presence of 0.135 M NaCl.” left out
(§4) The influence of divalent metal ions on the fluorescence spectral profile of compound 3 is shown in FIG. 3, where the fluorescence emission spectra of 200 μM compound 1 (λex=315 nm) with stoichiometric concentrations of selected divalent metal ions. […]

Data set [8] can be described thus: Fluorescence emission profile with stoichiometric divalent metal ion: Hg^2+. The note with it: 200 μM compound, λex/λem: compound 3 315/357 nm, compound 4 365/520 nm. The protocol: as §1, with “The HEPES buffer was prepared from commercially available 1M solution of the free acid and the pH was adjusted to 7.0 by the addition of KOH pellets in the presence of 0.135 M NaCl.” left out
as §4

Data set [9] can be described thus: Spectrofluorometric titration of compound with Zn^2+ (ZnCl2). It counts as binding. The note with it: approx. The protocol: as §1, with “The HEPES buffer was prepared from commercially available 1M solution of the free acid and the pH was adjusted to 7.0 by the addition of KOH pellets in the presence of 0.135 M NaCl.” left out
To determine the magnitude of Zn^2+ induced fluorescence spectral changes of compound 1 as well as its binding affinity, a detailed spectrofluorometric titration study was performed.

The nature of another data set: Solubility. The class given is physicochemical. The note with it: for solubility: solvent not given.
The conditions of data set [10]: Cai et al., Inorg. Chim. Acta 1997; cited from earlier work.

“Sodium 2,6-diamino-(N,N,N′,N′-tetraacetate)-3-nitroanisole [compound 4]”: the “effect of Zn^2+ on fluorescence emission intensity” value in [1] (200 μM compound) is reported as “substantially enhanced”. The “effect of Ni^2+ on fluorescence emission intensity” value in data set [2] was “significantly quenched”. In addition, the “effect of Co^2+ on fluorescence emission intensity” value in [3] is “significantly quenched”. Further, in [4], the “effect of Ca^2+ on fluorescence emission intensity” value is reported as “slightly quenched”. Moreover, the “effect of Cu^2+ on fluorescence emission intensity” value in data set [5] is given as “significantly quenched”. In addition, in [6], the “effect of Mg^2+ on fluorescence emission intensity” value is on record as “slightly quenched”. In addition, the “effect of Cd^2+ on fluorescence emission intensity” value in data set [7] is listed as “substantially enhanced”. In data set [8], the “effect of Hg^2+ on fluorescence emission intensity” value is listed as “no discernable effect”.
As a reminder, the Kd is the free concentration of one partner at which half of the binding sites on the other are occupied at equilibrium, for simple one-to-one binding. With `O=C([O-])CN(CC(=O)[O-])c1cccc(N(CC(=O)[O-])CC(=O)[O-])c1.[Na+].[Na+].[Na+].[Na+]` [compound 3, Sodium 1,3-diamino-(N,N,N′,N′-tetraacetate)benzene], in data set [1] (200 μM compound), the “effect of Zn^2+ on fluorescence emission intensity” value is given as “enhanced significantly”. In addition, the Kd in data set [9] is ~2 mM. In [2], the “effect of Ni^2+ on fluorescence emission intensity” value was “decreases”. The “effect of Co^2+ on fluorescence emission intensity” value in data set [3] is “decreases”. The “effect of Ca^2+ on fluorescence emission intensity” value in [4] is listed as “slightly enhanced”. Also, the “effect of Cu^2+ on fluorescence emission intensity” value in [5] was “decreases”. Further, in [6], the “effect of Mg^2+ on fluorescence emission intensity” value is given as “slightly enhanced”. In addition, the “effect of Cd^2+ on fluorescence emission intensity” value in data set [7] is “slightly enhanced”. For the same compound, the “effect of Hg^2+ on fluorescence emission intensity” value in data set [8] was “slightly enhanced”.
With `COc1c(N(CC(=O)[O-])CC(=O)[O-])cc(C)cc1N(CC(=O)[O-])CC(=O)[O-].[K+].[K+].[K+].[K+]` [compound 1, Potassium-2,6-diamino-(N,N,N′,N′-tetraacetate)-4-methylanisole], the “effect of Zn^2+ on fluorescence emission intensity” value in data set [1] (200 μM compound) was “most dramatic effect”. For the same compound, the “Zn^2+-induced fluorescence enhancement in the presence of excess Ca^2+” value in data set [1] (100 fold excess of Ca^2+) is on record as “maintained”. Besides, in data set [1] (stoichiometric concentration of Zn^2+, 200 μM compound, λex=300 nm), the “increase of fluorescence emission intensity in the presence of Zn^2+” value is recorded as “about 10 fold”. The “effect of Ni^2+ on fluorescence emission intensity” value in data set [2] is reported as “decreases”. Besides, in [3], the “effect of Co^2+ on fluorescence emission intensity” value is listed as “decreases”. The “solubility in the aqueous medium” value in the data set “Solubility” (aqueous medium) is reported as “high solubility”. Further, the solubility result in the data set “Solubility” is recorded as “readily soluble”. Moreover, the “effect of Ca^2+ on fluorescence emission intensity” value in data set [4] is “only slightly increased”. In addition, the “effect of Cu^2+ on fluorescence emission intensity” value in data set [5] is “decreases”. Besides, in data set [6], the “effect of Mg^2+ on fluorescence emission intensity” value is recorded as “barely affected”.
Turning to `Cc1cc(N(CC(=O)O)CC(=O)O)c(O)c(N(CC(=O)O)CC(=O)O)c1` [N,N,N′,N′-tetrakis(carboxylatemethyl)-2,6-diaminocresol], the divalent metal binding result in [10] is recorded as “binding to only Co^2+ or Cu^2+”.
As to “Zinc-2,6-diamino-(N,N,N′,N′-tetraacetate)-4-methylanisole [compound 1-Zn complex]”, the solubility entry in “Solubility” is “low solubility”. Besides, the “solubility in water and methanol” value in the data set “Solubility” (water and methanol) is “low solubility”.
